Laboratory results published in PubChem BioAssay (NCI).
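1) Cells in 96-well plates. 2) Compound, 48 h, 5 concentrations. 3) Linear interpolation between surrounding doses. 4) Unreached endpoint = highest concentration. TGI is the concentration that stops growth completely.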

Columns and labels:
Test in all cases: inhibition of tumour cell growth, NCI panel, 48 h
[1] = test system: MCF7 breast
[2] = test system: NCI-H226 lung
[3] = test system: SN12C renal
[4] = test system: SR leukemia
[5] = test system: SW-620 colon
[6] = test system: UACC-62 melanoma
[7] = test system: NCI-H522 lung
[8] = test system: OVCAR-4 ovarian

| SMILES | TGI [1] [µM] | TGI [2] [µM] | TGI [3] [µM] | TGI [4] [µM] | TGI [5] [µM] | TGI [6] [µM] | TGI [7] [µM] | TGI [8] [µM] |
| --- | --- | --- | --- | --- | --- | --- | --- | --- |
| CN(Cc1cnc2nc(N)nc(N)c2n1)c1ccc(C(=O)NC2CCCCC2)cc1 | > 100 | 80.4 | > 100 | > 100 | > 100 | 32 |  |  |
| COc1cc([C@@H]2c3cc4c(cc3[C@@H](N=Cc3ccc(C(=O)O[C@H]5C[C@H]6OC[C@@]6(OC(C)=O)[C@H]6[C@H](OC(=O)c7ccccc7)[C@]7(O)C[C@H](OC(=O)[C@H](OC(=O)c8ccc(C=N[C@@H]9c%10cc%11c(cc%10[C@@H](c%10cc(OC)c(O)c(OC)c%10)[C@H]%10C(=O)OC[C@@H]%109)OCO%11)cc8)[C@@H](NC(=O)c8ccccc8)c8ccccc8)C(C)=C([C@@H](OC(C)=O)C(=O)[C@]56C)C7(C)C)cc3)C3COC(=O)C32)OCO4)cc(C)c1O (stereo partly specified) | 48.5 | > 50 | > 50 | > 50 | > 50 | > 39.2 | > 50 | > 50 |
| COC(=O)[C@H]1[C@H](OC(=O)[C@@H](OC)c2ccccc2)ON2CC[C@@H](OC(=O)c3ccccc3)[C@H]12 | 22 | > 100 | > 100 | > 100 |  | 28 | 7.59 | > 100 |
| CCOC(=O)/C(C#N)=N\Nc1ccc(-n2c(C)nc3ccc(Br)cc3c2=O)cc1 | > 100 | > 100 | > 100 | > 100 | > 100 | > 100 |  |  |
| CC1C2CC(CC2=O)C1(C)C (stereo unspecified) | > 100 | > 100 | > 100 | > 100 | > 100 | > 100 | > 100 | > 100 |
| COC(=O)C1CCCCCCCCCCC12SCCCS2 (stereo unspecified) | > 100 | 42.8 | 31.8 | 34.9 | 81.9 | 59.4 | 43.5 | 38.7 |
| C=CCSC1=N/C(=C\c2ccco2)C(=O)N1CC=C | > 100 | > 100 | > 100 | > 100 | > 100 | > 100 | > 100 | > 100 |
| O=C(CC(C(=O)c1ccsc1)c1cccs1)c1ccsc1 (stereo unspecified) | > 100 | > 100 | > 100 | > 100 | > 100 | > 100 |  | > 100 |
| COc1ccc(-n2c(-c3ccccc3)cc(-c3cccs3)c2-c2cccs2)cc1 | > 100 | > 100 | > 100 | > 100 | > 100 | > 100 | > 100 | > 100 |
| O=c1[nH]nc(Cc2ccc(Cl)cc2)n1Nc1ccccc1 | > 100 | > 100 | > 100 |  | > 100 | > 100 |  | > 100 |
| CCOC(=O)C(NC(=O)Nc1ccccc1F)(OC)C(F)(F)F (stereo unspecified) |  |  | > 100 | > 100 | > 100 |  |  |  |
| c1ccc2c(c1)SCCCSCCCS2 | > 100 |  | > 100 | > 100 | > 100 | > 100 | > 100 | > 100 |
| CC(=O)N(CCc1ccccc1)C(C)(C#N)c1ccccc1 (stereo unspecified) | > 100 | > 100 | > 100 | > 100 | > 100 | > 100 | > 100 | > 100 |
| c1ncc(C23C4C5C6C4C2C6C53)[nH]1 (stereo unspecified) | > 100 | > 100 | > 100 | > 100 | > 100 | > 100 |  | > 100 |
| O=C(Nc1ccc(Cl)cc1)C(=O)C1=C(O)c2ccccc2OC1 | > 100 | > 100 | > 100 |  | > 100 | > 100 | > 100 | > 100 |
| CCOC(=O)CC(=O)Nc1c(C(=O)OCC)sc2nc(SC)nc(Nc3ccc(OC)c(OC)c3)c12 | > 100 | > 100 | > 100 |  | > 100 | > 100 | 34.1 | > 100 |
| COc1ccc2[nH]c3c(c2c1)CCc1ccccc1-3 | > 100 | > 100 | > 100 | > 100 | > 100 | > 100 | 79.7 | > 100 |
| Nc1nc(SCC(=O)c2ccccc2)nc2nc3c(c(-c4ccccc4)c12)CCCC3 | > 100 | 62.7 | > 100 | > 100 |  | > 100 | > 100 | 66.4 |
| Cc1ccc(NC(=O)c2cc(S(=O)(=O)N3CCNNC3=O)c(S)cc2Cl)cc1 | > 100 | > 100 | > 100 | > 100 | > 100 | > 100 | > 100 | > 100 |
| CCOP(=O)(OCC)OC1CC(n2cnc3c(N(CC)CC)ncnc32)OC1CO[Si](C)(C)C(C)(C)C (stereo unspecified) | 39.8 | 39.3 | 37.8 | > 100 | 35.2 | 28.2 | 27.6 | 29.5 |
| CC(=O)Nc1ccccc1S(=O)(=O)c1c(-c2c(C)c(Cl)c(C)c(Cl)c2C)noc1C | > 100 | 78.8 | > 100 | 43.2 | > 100 | > 100 | > 100 | 35.6 |
| Cc1[nH]c2ncn(N)c(=N)c2c1Cc1ccccc1 | > 100 | > 100 | > 100 | > 100 | > 100 | > 100 | > 100 | > 100 |
| O=C(O)C1CCCCN1CCc1c[nH]c2ccccc12 (stereo unspecified) | > 100 | > 100 | > 100 |  | > 100 | > 100 | > 100 | > 100 |
| O=C(CCl)Nc1ccc(-c2nc3ccccc3s2)cc1 | 2.39 | 5.11 | 4.2 | 5.49 | 5.07 | 8.71 | 3.64 | 15.2 |
| Cc1oc2nc(N(C)C)n3c(C)nnc3c2c1C | > 100 | > 100 | > 100 | > 100 | > 100 | > 100 | > 100 | > 100 |
